Laboratory results taken from ChEMBL document CHEMBL1671815, “A practical use of ligand efficiency indices out of the fragment-based approach: ligand efficiency-guided lead identification of soluble epoxide hydrolase inhibitors” (J Med Chem, 2011).
pIC50: −log10 of the molar value.

Key:
[1] = test system: Liver microsomes; assay: Intrinsic clearance in rat liver microsome measured per mg of protein; assay type: ADME
[2] = target: Cytochrome P450 2C19 (Homo sapiens, UniProt P33261); assay: Inhibition of CYP2C19; assay type: ADME
[3] = target: T1, Bifunctional epoxide hydrolase 2 (Homo sapiens, UniProt P34913); assay: Inhibition of soluble epoxide hydrolase in human HepG2 cells after 30 mins; assay type: cell-based
T1 sequence (P34913 whole entry): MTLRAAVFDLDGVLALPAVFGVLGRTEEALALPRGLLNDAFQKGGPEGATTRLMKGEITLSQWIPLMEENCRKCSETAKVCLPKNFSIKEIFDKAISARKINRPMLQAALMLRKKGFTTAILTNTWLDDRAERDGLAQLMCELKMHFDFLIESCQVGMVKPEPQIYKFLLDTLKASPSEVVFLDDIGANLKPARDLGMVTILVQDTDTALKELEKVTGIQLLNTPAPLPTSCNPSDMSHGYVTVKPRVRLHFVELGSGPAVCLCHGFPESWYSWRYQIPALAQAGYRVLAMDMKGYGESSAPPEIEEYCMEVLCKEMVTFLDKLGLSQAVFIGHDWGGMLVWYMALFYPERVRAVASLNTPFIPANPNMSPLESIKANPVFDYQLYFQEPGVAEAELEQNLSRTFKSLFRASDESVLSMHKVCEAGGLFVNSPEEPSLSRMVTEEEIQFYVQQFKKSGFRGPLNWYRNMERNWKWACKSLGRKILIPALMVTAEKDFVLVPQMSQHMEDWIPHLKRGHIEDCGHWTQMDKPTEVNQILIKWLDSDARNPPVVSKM

[4] = test system: Liver microsomes; assay: Intrinsic clearance in human liver microsome measured per mg of protein; assay type: ADME
[5] = target: T2, Bifunctional epoxide hydrolase 2 (Rattus norvegicus, UniProt P80299); assay: Inhibition of rat soluble epoxide hydrolase in cell free system
T2 sequence (P80299 whole entry): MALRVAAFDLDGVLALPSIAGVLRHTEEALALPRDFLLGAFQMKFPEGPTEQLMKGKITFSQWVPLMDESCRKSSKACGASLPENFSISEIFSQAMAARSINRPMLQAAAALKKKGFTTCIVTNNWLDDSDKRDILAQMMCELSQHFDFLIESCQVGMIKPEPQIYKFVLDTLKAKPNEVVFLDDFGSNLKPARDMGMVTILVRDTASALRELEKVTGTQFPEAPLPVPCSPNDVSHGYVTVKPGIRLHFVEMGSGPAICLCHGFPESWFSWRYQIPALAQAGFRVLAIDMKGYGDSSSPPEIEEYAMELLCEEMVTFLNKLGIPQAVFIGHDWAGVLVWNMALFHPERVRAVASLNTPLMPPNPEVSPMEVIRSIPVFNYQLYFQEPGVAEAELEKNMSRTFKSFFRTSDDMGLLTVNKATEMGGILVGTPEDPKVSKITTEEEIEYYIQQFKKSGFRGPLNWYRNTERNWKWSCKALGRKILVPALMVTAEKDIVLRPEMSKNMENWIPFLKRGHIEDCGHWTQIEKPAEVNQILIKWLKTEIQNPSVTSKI

[6] = target: T1, Bifunctional epoxide hydrolase 2; assay: Inhibition of human soluble epoxide hydrolase in cell free system
[7] = Aqueous solubility of the compound at pH 7.4; assay type: physicochemical
[8] = test system: HepG2; assay: Cytotoxicity against human HepG2 cells up to 100 uM; assay type: cell-based
[9] = target: T3, Cytochrome P450 1A2 (Homo sapiens, UniProt P05177); assay: Inhibition of CYP1A2; assay type: ADME
T3 sequence (P05177 whole entry): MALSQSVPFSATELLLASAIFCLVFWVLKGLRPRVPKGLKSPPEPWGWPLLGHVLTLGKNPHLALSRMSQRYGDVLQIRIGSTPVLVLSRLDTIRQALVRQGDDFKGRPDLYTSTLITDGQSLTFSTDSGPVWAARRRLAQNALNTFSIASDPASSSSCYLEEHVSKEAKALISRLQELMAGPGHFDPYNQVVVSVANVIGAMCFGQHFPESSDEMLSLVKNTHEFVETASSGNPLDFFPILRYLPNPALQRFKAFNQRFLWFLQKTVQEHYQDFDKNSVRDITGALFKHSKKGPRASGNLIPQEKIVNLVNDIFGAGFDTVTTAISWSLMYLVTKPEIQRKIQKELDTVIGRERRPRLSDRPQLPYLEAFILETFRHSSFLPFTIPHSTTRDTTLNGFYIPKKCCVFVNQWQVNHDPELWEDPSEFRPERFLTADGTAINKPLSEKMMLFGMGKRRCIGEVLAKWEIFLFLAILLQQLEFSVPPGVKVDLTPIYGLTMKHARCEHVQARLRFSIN

Cytochrome P450 2C19, sequence (P33261 whole entry): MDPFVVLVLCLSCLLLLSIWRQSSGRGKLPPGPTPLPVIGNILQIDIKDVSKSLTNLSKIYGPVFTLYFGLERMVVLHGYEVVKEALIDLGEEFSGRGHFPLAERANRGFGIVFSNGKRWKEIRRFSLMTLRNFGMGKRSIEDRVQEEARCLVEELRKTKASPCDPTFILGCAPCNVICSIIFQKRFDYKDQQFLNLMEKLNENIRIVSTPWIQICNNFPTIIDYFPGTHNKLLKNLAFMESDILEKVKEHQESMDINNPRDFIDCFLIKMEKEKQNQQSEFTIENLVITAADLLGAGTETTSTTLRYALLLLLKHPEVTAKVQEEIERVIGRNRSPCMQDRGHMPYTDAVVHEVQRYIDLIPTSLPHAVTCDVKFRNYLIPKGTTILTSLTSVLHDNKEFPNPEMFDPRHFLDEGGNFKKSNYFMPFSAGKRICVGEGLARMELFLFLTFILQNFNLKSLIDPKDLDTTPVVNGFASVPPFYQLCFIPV

SMILES	CL [1]	pIC50 [2]	pIC50 [3]	CL [4]	pIC50 [5]	pIC50 [6]	solubility [7]	Activity [8]	pIC50 [9]
COc1cccc2c1CC(C(=O)N[C@H]1C[C@@H]1c1ccccc1)CC2 (mixture of isomers)	> 100 µL/min/mg	> 5.00	8.33	> 100 µL/min/mg	8.52	8.19	< 1 µg/mL		
CC(C)c1noc(C2CCN(C(=O)N[C@H]3C[C@@H]3c3ccccc3)CC2)n1 (racemic)					7.89			Non-toxic	
O=C(N[C@H]1C[C@@H]1c1ccccc1)c1ccc2nonc2c1 (racemic)		> 5.00			6.62	7.21	< 1 µg/mL		
Cc1nc2cc(NC(=O)N[C@H]3C[C@@H]3c3ccccc3)ccc2o1 (racemic)	> 100 µL/min/mg		7.09	> 100 µL/min/mg	7.70	7.40	< 1 µg/mL		
CN(C)c1ccc(CNC(=O)N[C@H]2C[C@@H]2c2ccccc2)cc1 (racemic)	> 100 µL/min/mg	> 5.00				7.52			> 5.00
O=C(NC1CCN(c2ccccc2)CC1)N[C@H]1C[C@@H]1c1ccccc1 (racemic)	> 100 µL/min/mg		8.10		8.77	8.64	< 1 µg/mL		
